Results on 13 molecules are retold here after patent US20090105301A1, “9A-SUBSTITUTED AZALIDES FOR THE TREATMENT OF MALARIA” (priority 2006, published 2009).

Type in all cases: cell-based, Plasmodium falciparum
For experiment [1], the system named is P. falciparum W2 (CDC/Indochina III, W-2). As to the kind of experiment: In vitro screening protocol I, [3H]-hypoxanthine incorporation, W2. The note with it: In vitro screening protocol I, P. falciparum W2; for IC50: Plasmodium falciparum, read-out: IC50 W2. The source says:
(§1) Agents Chemother. 27 (4) (1985) 525-530). The system was limited to the assessment of the intrinsic activity against the erythrocytic asexual life cycle (blood schizontocides). Two Plasmodium falciparum clones from CDC/Indochina III (W-2) and CDC/Sierra Leone I (D-6) (Oduola A M, Weatherly N F, Bowdre J H, Desjardins R E. Plasmodium falciparum: cloning by single-erythrocyte micromanipulation and heterogeneity in vitro. Exp Parasitol. 66 (1) (1988) 86-95) were used for all assays. TM91C235, a multiple drug resistant isolate from Thailand (Antimicrob. Agents Chemother. 46 (8) (2002) 2627 and Antimicrob. Agents Chemother. 43 (3) (1999) 598-602), was used for the prescreening assay. W-2 is resistant to chloroquine, quinine, and pyrimethamine and susceptible to mefloquine. D-6 tends to be more resistant to mefloquine and susceptible to chloroquine, quinine, and pyrimethamine. All documents cited in this paragraph are incorporated by reference in their entirety.
(§2) All parasites were maintained in continuous long term cultures in RPMI-1640 medium supplemented with 6% washed human A positive (A+)(erythrocytes, 25 mM Hepes, […], and 10% heat inactivated A+ human plasma or ALBUMAX® (lipid-rich bovine serum albumin; Invitrogen, Carlsbad, Calif.). All cultures and assays were conducted at 37° C. under an atmosphere of 5% CO2 and 5% O2, with a balance of N2.
(§3) The prescreening assay uses TM91C235 diluted at a 0.4% parasitemia in a 1% hematocrit in folic acid free and p-aminobenzoic acid free media RPMI-1640 and ALBUMAX®. […] The compound is further diluted in folate free (FF) culture medium with ALBUMAX® for the first initial starting concentration. The rest of the stock drug solution was kept at −70° C. The isolate was preexposed, in duplicate, at three concentrations (25,000 ng/ml, 2,500 ng/ml, and […]) of the test compound for 48 hr in a 96-well microtiter plate (MTP) using the BIOMEK® 2000 automated laboratory workstation. Each MTP contains chloroquine as control to assess the relative activity of the compound and to monitor the response of TM91C235.
(§4) After the preincubation, [^3H]-hypoxanthine was added to each well of the MTP. (The assay relies on the incorporation of radiolabeled hypoxanthine by the parasites, which indicates reproduction, and inhibition of isotope incorporation was attributed to activity of known or candidate antimalarial drugs). After 72 hours of total incubation time, the MTP were frozen to lyse the erythrocytes and parasites. The parasite DNA was recovered by harvesting the lysate onto glass-fiber filter plates using a Packard FilterMate™ Cell Harvester. The radioactivity was counted on a Packard TopCount™ microplate scintillation counter.
(§5) The serial dilution assay was conducted using the same assay conditions and stock solution of the compound used for the preliminary screen, described above. Both the D-6 and the W-2 clones were used. The compounds were diluted two-fold over 11 different concentration ranges with a starting concentration that was based on the preliminary screen. For each drug, the concentration response profile was determined and 50% inhibitory concentrations (IC50) were determined by using a non-linear, logistic dose response analysis program. […] For each assay, the IC50 for each clone was determined against the known antimalarials chloroquine and mefloquine. These control values established the compound's relative parasite susceptibility profile compared to known antimalarials. […]

Another experiment relates to P. falciparum TM91C235. As to the kind of experiment: In vitro screening protocol I, [3H]-hypoxanthine incorporation, TM91C235. The conditions noted are these: In vitro screening protocol I, P. falciparum TM91C235; for IC50: Plasmodium falciparum, read-out: IC50 TM91C235.
Description: as §1, §2, §3, §4, §5

Experiment [2] has as its system P. falciparum D6 (CDC/Sierra Leone I, D-6). As to the kind of experiment: In vitro screening protocol I, [3H]-hypoxanthine incorporation, D6. The conditions noted are these: In vitro screening protocol I, P. falciparum D6; for IC50: Plasmodium falciparum, read-out: IC50 D6.
Description: as §1, §2, §3, §4, §5

In brackets after ≈: the same amount, converted by molar mass. Counter-ions that a name gives are not always drawn.

Usually IC50 stands for the concentration needed to halve the response being measured.

Take `CC[C@H]1OC(=O)[C@H](C)[C@@H](O[C@H]2C[C@@](C)(OC)[C@@H](O)[C@H](C)O2)[C@H](C)[C@@H](O[C@@H]2O[C@H](C)C[C@H](NC)[C@H]2O)[C@](C)(O)C[C@@H](C)CN(CCCNc2ccnc3cc(Cl)ccc23)[C@H](C)[C@@H](O)[C@]1(C)O` [Example 21B, 9a-{3-[(7-Chloro-quinolin-4-yl)amino]propyl}-3′N-demethyl-9-deoxo-9-dihydro-9a-aza-9a-homoerythromycin A]: the IC50 in experiment [1] is 0.1 to 0.2 µg/mL (≈ 0.106 to 0.213 µM); in the experiment on P. falciparum TM91C235, below 0.1 µg/mL; in experiment [2] it was 0.1 to 0.2 µg/mL (≈ 0.106 to 0.213 µM).
Turning to `CC[C@H]1OC(=O)[C@H](C)[C@@H](O[C@H]2C[C@@](C)(OC)[C@@H](O)[C@H](C)O2)[C@H](C)[C@@H](O[C@@H]2O[C@H](C)C[C@H](N(C)C)[C@H]2O)[C@](C)(O)C[C@@H](C)CN(CCCNC(=O)CCCc2ccccc2)[C@H](C)[C@@H](O)[C@]1(C)O` [Example 28, 9a-{3-[(4-Phenylbutanoyl)amino]propyl}-9a-aza-9-deoxo-9-dihydro-9a-homoerythromycin A Formiate Salt], the 50% inhibitory concentration (IC50) was 0.2 to 1 µg/mL in experiment [1], below 0.1 µg/mL in the experiment with P. falciparum TM91C235 and 0.2 to 1 µg/mL in experiment [2].
Turning to `CC[C@H]1OC(=O)[C@H](C)[C@@H](O[C@H]2C[C@@](C)(OC)[C@@H](O)[C@H](C)O2)[C@H](C)[C@@H](O[C@@H]2O[C@H](C)C[C@H](N(C)C)[C@H]2O)[C@](C)(O)C[C@@H](C)CN(CCCNC(=O)CCc2ccccc2)[C@H](C)[C@@H](O)[C@]1(C)O` [Example 46, 9a-{3-[(3-Phenylpropanoyl)amino]propyl}-9a-aza-9-deoxo-9-dihydro-9a-homoerythromycin A], in experiment [1], the “IC50 W2” value is recorded as “C (200 < X ≦ 1000)”. In addition, the “IC50 TM91C235” value in the experiment on P. falciparum TM91C235 is “C (200 < X ≦ 1000)”. Also, the “IC50 D6” value in experiment [2] was “C (200 < X ≦ 1000)”.
As to `CC[C@H]1OC(=O)[C@H](C)[C@@H](O)[C@H](C)[C@@H](O[C@@H]2O[C@H](C)C[C@H](N(C)C)[C@H]2O)[C@](C)(O)C[C@@H](C)CN(CCCNCc2ccncc2)[C@H](C)[C@@H](O)[C@]1(C)O` [Example 11, 9a-{3-[(Pyridine-4-yl-methyl)amino]propyl}-3-O-decladinosyl-9-deoxo-9-dihydro-9a-aza-9a-homoerythromycin A], the “IC50 W2” value in experiment [1] is on record as “C (200 < X ≦ 1000)”. In addition, in the experiment with P. falciparum TM91C235, the “IC50 TM91C235” value is “F (2800 < X ≦ 3500)”. The “IC50 D6” value in experiment [2] was “G (3500 < X ≦ 5000)”.
As to `CC[C@H]1OC(=O)[C@H](C)[C@@H](O[C@H]2C[C@@](C)(OC)[C@@H](O)[C@H](C)O2)[C@H](C)[C@@H](O[C@@H]2O[C@H](C)C[C@H](N(C)C)[C@H]2O)[C@](C)(O)C[C@@H](C)CN(CCCNCc2ccnc3ccccc23)[C@H](C)[C@@H](O)[C@]1(C)O` [Example 14, 9a-{3-[(Quinolin-4-yl-methyl)amino]propyl}-9-deoxo-9-dihydro-9a-aza-9a-homoerythromycin A], the “IC50 W2” value in experiment [1] is listed as “B (100 < X ≦ 200)”. In addition, the “IC50 TM91C235” value in the experiment with P. falciparum TM91C235 is reported as “B (100 < X ≦ 200)”. The “IC50 D6” value in experiment [2] is recorded as “B (100 < X ≦ 200)”.
In the case of `CC[C@H]1OC(=O)[C@H](C)[C@@H](O[C@H]2C[C@@](C)(OC)[C@@H](O)[C@H](C)O2)[C@H](C)[C@@H](O[C@@H]2O[C@H](C)C[C@H](N(C)C)[C@H]2O)[C@](C)(O)C[C@@H](C)CN(CCC(=O)NCc2ccc3ccccc3c2)[C@H](C)[C@@H](O)[C@]1(C)O` [Example 43], the half-inhibitory concentration (IC50) was below 0.1 µg/mL in experiment [1], below 0.1 µg/mL in the experiment with P. falciparum TM91C235 and 0.1 to 0.2 µg/mL (≈ 0.106 to 0.211 µM) in experiment [2].
As to `CC[C@H]1OC(=O)[C@H](C)[C@@H](O)[C@H](C)[C@@H](O[C@@H]2O[C@H](C)C[C@H](N(C)C)[C@H]2O)[C@](C)(O)C[C@@H](C)CN(CCCNC(=O)[C@H](C)c2ccc3cc(OC)ccc3c2)[C@H](C)[C@@H](O)[C@]1(C)O` [Example 37, 9a-[3-({(2S)-2-[6-(methyloxy)-naphthalen-2-yl]propanoyl}amino)propyl]-3-O-decladinosyl-9a-aza-9-deoxo-9-dihydro-9a-homoerythromycin A Formiate Salt], the IC50 (in experiment [1]; in the experiment with P. falciparum TM91C235; in experiment [2]) was 0.2 to 1 µg/mL each time.
Take `CC[C@H]1OC(=O)[C@H](C)[C@@H](O[C@H]2C[C@@](C)(OC)[C@@H](O)[C@H](C)O2)[C@H](C)[C@@H](O[C@@H]2O[C@H](C)C[C@H](N(C)C)[C@H]2O)[C@](C)(O)C[C@@H](C)CN(CCC(=O)NCCCCc2ccccc2)[C@H](C)[C@@H](O)[C@]1(C)O` [Example 41]: the results for the IC50 (in experiment [1]; in the experiment with P. falciparum TM91C235; in experiment [2]) were below 0.1 µg/mL, below 0.1 µg/mL and 0.1 to 0.2 µg/mL (≈ 0.107 to 0.213 µM), respectively.
As for `CC[C@H]1OC(=O)[C@H](C)[C@@H](O[C@H]2C[C@@](C)(OC)[C@@H](O)[C@H](C)O2)[C@H](C)[C@@H](O[C@@H]2O[C@H](C)C[C@H](N(C)C)[C@H]2O)[C@](C)(O)C[C@@H](C)CN(CCCNCc2ccncc2)[C@H](C)[C@@H](O)[C@]1(C)O` [Example 10, 9a-{3-[(Pyridine-4-yl-methyl)amino]propyl}-9-deoxo-9-dihydro-9a-aza-9a-homoerythromycin A], the “IC50 W2” value in experiment [1] is “C (200 < X ≦ 1000)”. In addition, the “IC50 TM91C235” value in the experiment on P. falciparum TM91C235 was “C (200 < X ≦ 1000)”. Besides, the “IC50 D6” value in experiment [2] is recorded as “C (200 < X ≦ 1000)”.
For the molecule `CCC1OC(=O)C(C)C(O)C(C)C(O)C(C)(O)CC(C)CN(CCCNCc2cnc3ccccc3c2)C(C)C(O)C1(C)O` (stereo not drawn) [Example 6, 9a-{3-[(Quinolin-3-yl-methyl)amino]propyl}-3-O-decladinosyl-5-O-dedesosaminyl-9-deoxo-9-dihydro-9a-aza-9a-homoerythromycin A], the “IC50 W2” value in experiment [1] is given as “C (200 < X ≦ 1000)”. The “IC50 TM91C235” value in the experiment on P. falciparum TM91C235 is reported as “D (1000 < X ≦ 2500)”. Also, in experiment [2], the “IC50 D6” value was “F (2800 < X ≦ 3500)”.
The matching figures for `CC[C@H]1OC(=O)[C@H](C)[C@@H](O[C@H]2C[C@@](C)(OC)[C@@H](O)[C@H](C)O2)[C@H](C)[C@@H](O[C@@H]2O[C@H](C)C[C@H](N(C)C)[C@H]2O)[C@](C)(O)C[C@@H](C)CN(CCNCc2cccc3ccccc23)[C@H](C)[C@@H](O)[C@]1(C)O` [Example 16, 9a-{2-[(Naphtalen-1-yl-methyl)amino]ethyl}-9-deoxo-9-dihydro-9a-aza-9a-homoerythromycin A]: “A (X ≦ 100)”, “A (X ≦ 100)” and “B (100 < X ≦ 200)”.
On to `CC[C@H]1OC(=O)[C@H](C)[C@@H](O[C@H]2C[C@@](C)(OC)[C@@H](O)[C@H](C)O2)[C@H](C)[C@@H](O[C@@H]2O[C@H](C)C[C@H](N(C)C)[C@H]2O)[C@](C)(O)C[C@@H](C)CN(CCCNC(=O)[C@H](C)c2ccc3cc(OC)ccc3c2)[C@H](C)[C@@H](O)[C@]1(C)O` [Example 32, 9a-[3-({(2S)-2-[6-(methyloxy)-naphthalen-2-yl]propanoyl}amino)propyl]-9a-aza-9-deoxo-9-dihydro-9a-homoerythromycin A Formiate Salt], for which the results for the concentration for half-maximal inhibition (IC50) (in experiment [1]; with P. falciparum TM91C235; in experiment [2]) were 0.1 to 0.2 µg/mL, below 0.1 µg/mL and 0.2 to 1 µg/mL, respectively.
As to `CC[C@H]1OC(=O)[C@H](C)[C@@H](O)[C@H](C)[C@@H](O[C@@H]2O[C@H](C)C[C@H](N(C)C)[C@H]2O)[C@](C)(O)C[C@@H](C)CN(CCCNc2ccnc3cc(Cl)ccc23)[C@H](C)[C@@H](O)[C@]1(C)O` [Example 23], the IC50 (in experiment [1]; in the experiment on P. falciparum TM91C235; in experiment [2]) was below 0.1 µg/mL in each case.
